# Measured values reported in patent publication US20160039778A1, “TRPV-1 RECEPTOR ANTAGONIST COMPOUND DERIVED FROM 1,3,4-THIADIAZOLE ALKYLAMIDES AND CHALCONES” (UNIVERSIDAD DE CONCEPCION, priority 2012, published 2016).
# Like-named read-outs stand apart in the source and are kept apart here.
# Assays:
# rat TRPV-1 receptor = target: T1, rat TRPV-1 receptor (Rattus norvegicus, UniProt O35433); test: Dose response curve, temperature activation of the TRPV-1 receptor in transfected HEK-293T cells; assay type: cell-based; conditions: relative fluorescence at 50° C., HEK-293T cells transfected with rat TRPV-1, two independent experiments, ± standard deviation
# T1 construct: expressed in transfected cells; host or cells: HEK-293T
# Method: The synthesized compounds were evaluated in HEK-293T cell cultures transfected with cDNA from rat TRPV receptors. […] The influx of calcium was measured with a fluorescent probe, Fluo 4-AM, as in the presence of an antagonist the calcium influx is blocked by the inactivation of the TRPV-1 receptor and cellular fluorescence decreases.
# The HEK-293T cells were cultured in a DMEM medium supplemented with 5% fetal bovine serum, 50 U/ml penicillin, […] streptomycin and 2 mM L-glutamine. The cultures were kept at 37°, in a 5% CO2 environment, with 80% relative humidity.
# The HEK-293T cells were transfected with rat TPRV-1 pcDNA3, 97 μOpti-MEM and 3 μL of Lipofectamine 2000 were added to a reaction tube and to a second tube 1 μg of DNA and one volume of Opti-MEM were added to complete 100 μL. Both tubes were incubated for 10 minutes, after which they were mixed and incubated for another 15 minutes.
# After 48 hours of transfection the cells were treated with 200 μL of trypsin, left to incubate for 5 minutes at room temperature, then gently pipetted and transposed to a 15 ml tube. After being centrifuged at a speed of 6,000 rpm for 10 minutes, the cells were re-suspended in 1 ml of Ringer medium, adding 1 μl of Fluo-4AM 1000×, and incubated at 37° C. for half an hour. After being centrifuged and washed with pH 7.34 PBS 1× to remove the excess probe the cell pellet was re-suspended in 1.5 ml of Ringer medium.
# Once the rat TRPV-1 receptor had been transfected, Fluo-4 AM charged HEK 293T cells were plated out in 48-well plates at a cellular density of 50,000 cells per well, with a transfection percentage of 40-50%. Subsequently 2 μL/well of each assayed compound were added and the cells left to incubate at room temperature for 5-10 minutes before the execution of the experiment by temperature. The fluorescence measurements were then read on a real time PCR system that allows an increment of 1° C. every 35 seconds from 36° C. to 55° C. for compounds and from 22-56° C. for transfected cells in absence of compounds. Reading of the fluorescence measurement was done using a FAM filter ([…]). […] The values were then normalized, the data being expressed as relative fluorescence, which is the ratio between the fluorescence variation and the base line.
# An assay was carried out on temperature activation of the TRPV-1 receptor by incubating the transfected and Fluo-4AM charged HEK-293T cells in the presence of different concentrations of each compound assayed: 1 μM; 0.1 μM; 0.01 μM; 0.003 μM; 0.001μM; 0.0003 μM, 0.0001 μM y 0.00001 μM. The relative fluorescence data obtained at 50° C. was then used to calculate the fluorescence ratio, which is presented as normalized in relation to the relative fluorescence at initial concentration. In this way, the fluorescence ratios obtained through two independent experiments were averaged and expressed with the respective standard deviation.
# [1] = literature statement; cited from earlier work
# TRPV1 receptor = conditions: cited from earlier work; for selectivity for the TRPV-1 receptor: literature statement
# [2] = literature statement; cited from earlier work; remark: listed apart in the source
# [3] = literature statement; cited from earlier work; remark: listed apart in the source
# [4] = literature value, read-out: half maximal inhibitory concentration (IC50), TRPV1 antagonist
# [5] = 1,3,4-thiadiazole alkylamide derivatives
# [6] = read-out: half maximal inhibitory concentration (IC50), TRPV1 antagonist
# T1 sequence (O35433 whole entry): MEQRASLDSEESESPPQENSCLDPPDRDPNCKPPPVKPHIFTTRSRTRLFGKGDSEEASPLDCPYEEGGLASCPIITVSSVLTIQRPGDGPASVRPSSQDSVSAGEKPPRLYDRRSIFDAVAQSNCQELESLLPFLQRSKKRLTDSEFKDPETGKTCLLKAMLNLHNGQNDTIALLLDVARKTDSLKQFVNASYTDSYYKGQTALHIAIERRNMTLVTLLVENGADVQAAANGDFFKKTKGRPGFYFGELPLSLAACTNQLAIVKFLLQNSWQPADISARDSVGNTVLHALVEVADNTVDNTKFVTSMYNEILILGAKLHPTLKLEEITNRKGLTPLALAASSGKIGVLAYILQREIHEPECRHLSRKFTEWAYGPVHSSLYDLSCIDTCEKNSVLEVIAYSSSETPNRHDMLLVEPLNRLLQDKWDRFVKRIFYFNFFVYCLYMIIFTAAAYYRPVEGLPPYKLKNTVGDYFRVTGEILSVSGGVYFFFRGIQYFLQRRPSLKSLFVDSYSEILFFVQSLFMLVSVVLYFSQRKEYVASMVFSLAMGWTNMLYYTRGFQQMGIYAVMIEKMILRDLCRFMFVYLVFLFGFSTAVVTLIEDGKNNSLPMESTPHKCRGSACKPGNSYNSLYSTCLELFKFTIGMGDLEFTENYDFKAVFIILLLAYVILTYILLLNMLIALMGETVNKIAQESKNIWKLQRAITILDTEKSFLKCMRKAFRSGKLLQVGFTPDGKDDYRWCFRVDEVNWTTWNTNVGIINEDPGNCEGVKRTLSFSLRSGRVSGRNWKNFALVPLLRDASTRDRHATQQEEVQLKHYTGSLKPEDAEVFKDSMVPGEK
compound,measurement,setting,value
O=C(/C=C/c1ccccc1)c1ccc(Br)cc1 [i],IC50,rat TRPV-1 receptor; chalcone derivatives,1.02 ± 0.206 nM
Oc1cc2c(cc1O)CN(C(=S)NCCc1ccc(Cl)cc1)CCC2 [capsazepine],metabolic stability,[1],metabolically unstable
same,selectivity for the TRPV-1 receptor,TRPV1 receptor,low selectivity
same,IC50,TRPV1 receptor; [4],56.2 nM
"CCCCCCC(=O)Nc1nnc(-c2cc(I)c(O)c(OC)c2)s1 [e, N-[5-(4-hydroxy-5-methoxy-3-iodophenyl)-1,3,4-thiadiazole-2-yl]heptanamide]",IC50,rat TRPV-1 receptor; [5],1.263 ± 0.009 nM
"O=C(/C=C/c1ccccc1)/C=C/c1ccccc1 [m, (1E, 4E)-1,5-diphenyl penta-1,4-dien-3-one]",IC50,rat TRPV-1 receptor; chalcone derivatives,7.55 ± 1.9 nM
C=C(C)[C@]12C[C@@H](C)[C@@]34O[C@](Cc5ccccc5)(O[C@@H]1[C@@H]3C=C(COC(=O)Cc1cc(I)c(O)c(OC)c1)C[C@]1(O)C(=O)C(C)=C[C@@H]41)O2 [5-iodoresiniferatoxin],IC50,TRPV1 receptor; [4],0.4 nM
"O=C(/C=C/c1ccc(O)cc1)/C=C/c1ccc(O)cc1 [n, (1E, 4E)-1,5-(4-hydroxyphenyl) penta-1,4-dien-3-one]",IC50,rat TRPV-1 receptor; chalcone derivatives,0.184 ± 0.023 nM
CCCCCCCCC(=O)NCc1cc(OC)c(O)cc1I [6-iodononivamide],IC50,TRPV1 receptor; [6],126 nM
"CCCCCC(=O)Nc1nnc(-c2ccc(O)c(OC)c2)s1 [h, N-[5-(4-hydroxy-3-methoxyfenil)-1,3,4-thiadiazole-2-yl]-hexanamide]",IC50,rat TRPV-1 receptor; [5],0.298 ± 0.026 nM
C=C(C)[C@]12C[C@@H](C)[C@@]34O[C@](Cc5ccccc5)(O[C@@H]1[C@@H]3C=C(COC(=O)Cc1ccc(O)c(OC)c1)C[C@]1(O)C(=O)C(C)=C[C@@H]41)O2 [resiniferatoxin],agonist potency relative to capsaicin,TRPV1 receptor,10 times
"CCCCCCCCC(=O)Nc1nnc(-c2cc(I)c(O)c(OC)c2)s1 [a, N-[5-(4-hydroxy-5-methoxy-3-iodophenyl)-1,3,4-thiadiazole-2-yl]-nonamide]",IC50,rat TRPV-1 receptor; [5],0.046 ± 0.004 nM
"CC(C)(C)c1ccc(/C=C/C(=O)Nc2ccc3c(c2)OCCO3)cc1 [(E)-3-(4-t-butylphenyl)-N-(2,3-dihydrobenzo[b][1,4]dioxin-6-yl)acrylamide]",IC50,"TRPV1 receptor; literature value, read-out: antagonistic activity IC50",79 nM
N.N.N.N.N.N.N.N.N.N.N.N.N.N.[Cl-].[Cl-].[Cl-].[Cl-].[Cl-].[Cl-].[O-2].[O-2].[Ru+3].[Ru+3].[Ru+4] [ruthenium red],selectivity for the TRPV-1 receptor,TRPV1 receptor,lack selectivity
same,IC50,"TRPV1 receptor; non-competitive antagonist, blocks the ionic channel, literature value, read-out: antagonistic activity IC50",170 nM
"CCCCCCCC(=O)Nc1nnc(-c2ccc(O)c(OC)c2)s1 [d, N-[5-(4-hydroxy-3-methoxyfenil)-1,3,4-thiadiazole-2-yl]-octanamide]",IC50,rat TRPV-1 receptor; [5],1.09 ± 0.497 nM
"COc1ccc(/C=C/C(=O)c2ccc(Br)cc2)cc1 [j, (2E)-1-(4-bromophenyl)-3-(4-methoxyphenyl) prop-2-en-1-one]",IC50,rat TRPV-1 receptor; chalcone derivatives,3.89 ± 0.225 nM
"CCCCCCCCC(=O)Nc1nnc(-c2ccc(O)c(OC)c2)s1 [b, N-[5-(4-hydroxy-3-methoxyphenyl)-1,3,4-thiadiazole-2-yl]-nonamide]",IC50,rat TRPV-1 receptor; [5],0.145 ± 0.051 nM
"CC(C)(C)c1ccc(NC(=O)N2CCN(c3ncccc3Cl)CC2)cc1 [BCTC, N-(4-tertiarybutylphenyl)-4-(3-cholorphyridin-2-yl)tetrahydropyrazine-1(2H)-carbox-amide]",metabolic stability,[1],low
same,IC50,"TRPV1 receptor; depending on the type of species (rat, mouse or human) of the TRPV1 receptor, literature value, read-out: half maximal inhibitory concentration (IC50), TRPV1 antagonist",2 to 6 nM
same,half-life,[2],short
same,oral bioavailability,[2],moderate
same,aqueous solubility,[3],poor
"COc1cc(C=C(Cl)C(=O)c2ccccc2)ccc1O (stereo in doubt) [q, (2E)-chloro-3-(4-hydroxy-3-methoxyphenyl)-1-phenyl prop-2-en-1-one]",IC50,rat TRPV-1 receptor; chalcone derivatives,0.257 ± 0.016 nM
[La] [lanthanum],selectivity for the TRPV-1 receptor,TRPV1 receptor,lack selectivity
same,concentration at which activity is presented,"TRPV1 receptor; non-competitive antagonist, blocks the ionic channel, literature value",≥ 100 µM
CCCCCCCCC(=O)NCc1cc(I)c(O)c(OC)c1 [5-iodononivamide],IC50,TRPV1 receptor; [6],10 nM
